The source made the active and inactive calls.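 Rule for the calls: active = compounds whose peak USP7 inhibition across the dose series reached 30% or more; inactive = the rest.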

For the experiment, the target named is Ubiquitin carboxyl-terminal hydrolase 7 (Homo sapiens) (UniProt Q93009). Description: Biochemical concentration-response for ubiquitin-specific peptidase 7 DUB inhibitors, verifying primary hits (AID 1645861). The settings on record: purified USP7, Ub-rhodamine cleavage fluorescence, 60 min.
Ubiquitin carboxyl-terminal hydrolase 7 (Homo sapiens), sequence (Q93009 whole entry, looked up): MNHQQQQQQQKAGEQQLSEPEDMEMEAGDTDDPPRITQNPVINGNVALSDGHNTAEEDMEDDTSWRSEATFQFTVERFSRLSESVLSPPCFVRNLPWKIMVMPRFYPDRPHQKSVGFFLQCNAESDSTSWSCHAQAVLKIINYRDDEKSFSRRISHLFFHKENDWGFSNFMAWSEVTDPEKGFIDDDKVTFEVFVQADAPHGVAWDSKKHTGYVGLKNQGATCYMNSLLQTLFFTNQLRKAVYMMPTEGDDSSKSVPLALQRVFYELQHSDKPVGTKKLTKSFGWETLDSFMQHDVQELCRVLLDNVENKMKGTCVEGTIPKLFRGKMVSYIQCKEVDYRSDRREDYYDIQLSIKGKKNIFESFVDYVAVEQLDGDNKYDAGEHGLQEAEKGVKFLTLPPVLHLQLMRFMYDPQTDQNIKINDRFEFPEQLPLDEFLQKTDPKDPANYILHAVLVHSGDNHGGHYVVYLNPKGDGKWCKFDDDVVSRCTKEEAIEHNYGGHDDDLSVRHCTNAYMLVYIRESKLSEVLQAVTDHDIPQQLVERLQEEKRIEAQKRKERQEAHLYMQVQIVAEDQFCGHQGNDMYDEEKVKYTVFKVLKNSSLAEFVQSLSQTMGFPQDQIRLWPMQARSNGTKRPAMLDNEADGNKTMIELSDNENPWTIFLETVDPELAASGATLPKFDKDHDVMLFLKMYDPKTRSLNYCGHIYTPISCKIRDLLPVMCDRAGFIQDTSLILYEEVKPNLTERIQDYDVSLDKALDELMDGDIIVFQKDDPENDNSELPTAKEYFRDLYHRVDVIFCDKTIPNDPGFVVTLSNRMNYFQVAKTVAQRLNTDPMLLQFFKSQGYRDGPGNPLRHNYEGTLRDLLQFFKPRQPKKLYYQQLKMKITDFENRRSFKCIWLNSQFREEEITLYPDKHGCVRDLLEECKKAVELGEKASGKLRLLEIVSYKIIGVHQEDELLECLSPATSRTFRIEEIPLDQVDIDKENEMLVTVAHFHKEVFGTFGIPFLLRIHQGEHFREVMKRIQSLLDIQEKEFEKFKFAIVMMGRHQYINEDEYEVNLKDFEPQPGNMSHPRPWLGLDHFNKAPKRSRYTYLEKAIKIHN
Take `O=C(COc1ccc(N2CC(C(=O)NCc3ccc4c(c3)OCO4)CC2=O)cc1)Nc1ccc(F)cc1` (stereo not given): the IC50 was > 50 µM (inactive).

For the molecule `Cc1cccc(NC(=O)Nc2nnc(CC(=O)NCc3ccccc3)s2)c1`, the IC50 is > 50 µM (inactive).

As for `Cc1cc(NC(=O)c2cc(-c3cccnc3)n[nH]2)ccc1Br`, the concentration for half-maximal inhibition (IC50) was 48.6 µM.

As to `O=c1cc(-c2ccc(O)c(O)c2)oc2cc(O)cc(O)c12`, the half-inhibitory concentration (IC50) was 2.81 µM.

For the molecule `Cn1c2ccccc2c(=O)c2c(=O)n(Cc3ccccc3)c(-c3ccco3)nc21`, the IC50 was > 50 µM (inactive).

As for `Cc1ccc(NC(=O)Nc2ccc(C)n(CC(=O)Nc3ccc(C)cc3C)c2=O)cc1`, the 50% inhibitory concentration (IC50) is 40.2 µM.

Turning to `Cc1nc(N2CCN(c3ccc(Cl)cc3)CC2)c2oc3ccccc3c2n1`, the IC50 is > 50 µM (inactive).

`O=C(NCc1ccco1)c1ccc(Cn2c(=O)c3sccc3n(Cc3cc(=O)n4ccccc4n3)c2=O)cc1`: the IC50 is > 50 µM (inactive).

For `O=C(NCc1ccc(F)cc1)c1cccc(Nc2nc3ccccc3n3cnnc23)c1`, the IC50 was > 50 µM (inactive).

In the case of `Cc1cccc(Cl)c1NC(=O)Nc1ccc(NC(=O)c2ccccc2O)cc1`, the IC50 is > 50 µM (inactive).

With `COc1ccc(Sc2nc3ccccc3n3cnnc23)cc1`, the IC50 was > 50 µM (inactive).

In the case of `COc1cccc(-n2cnc3cc(C(=O)NCCc4ccccc4)ccc3c2=O)c1`, the IC50 was > 50 µM (inactive).

For `O=C(CSc1ncnc2c1oc1ccccc12)NCCc1ccccc1`, the IC50 is > 50 µM (inactive).

Consider `NS(=O)(=O)c1ccc(CNC(=O)c2ccc(Cl)c(S(=O)(=O)Nc3cc(Cl)ccc3Cl)c2)cc1`, for which the IC50 was > 50 µM (inactive).

As to `CC(C)CCCCCCCCCCC(=O)N(C)[C@H](CO)C(=O)N[C@H](C)C(=O)NCC(=O)N(C)C1C(=O)N[C@@H](C)C(=O)NC(C(=O)O)Cc2ccc(O)c(c2)-c2cc1ccc2O` (stereo not given in full), the IC50 was > 50 µM (inactive).

With `N#Cc1cccc(NC(=O)COC(=O)c2n[nH]c3ccccc23)c1`, the IC50 was > 50 µM (inactive).

`O=C1C(=O)N(c2nc3ccc(F)cc3s2)C(c2ccc(F)cc2)/C1=C(\O)c1ccc(F)cc1` (stereo not given): the 50% inhibitory concentration (IC50) is 30.6 µM.

As to `O=C(Cn1c(=O)c2ccccc2n(CC(=O)Nc2cccc(F)c2)c1=O)NCCc1ccccc1`, the IC50 was > 50 µM (inactive).

With `Cc1cccc(NC(=O)Nc2ccccc2OCc2cc(=O)n3cccc(C)c3n2)c1`, the IC50 was > 50 µM (inactive).

On to `Nc1ccc2oc(-c3cccc(-c4nc5cc(N)ccc5o4)n3)nc2c1`, for which the IC50 was > 50 µM (inactive).

Take `COc1c(O)cc(CC(=O)O)c(C(C)=O)c1O`: the IC50 is 47.4 µM.

With `COc1ccccc1-c1nc(-c2cn(-c3cccc(Cl)c3)nn2)no1`, the half-inhibitory concentration (IC50) was 28.9 µM.

As for `N#Cc1cccc(NC(=O)Nc2cccn(Cc3ccccc3F)c2=O)c1`, the IC50 was > 50 µM (inactive).

Consider `CC1(C)Cc2c(c(-c3ccco3)nc3sc4c(SCCCc5ccccc5)ncnc4c23)CO1`, for which the IC50 was > 50 µM (inactive).

Turning to `O=C(Cn1c(=O)n(Cc2ccc3c(c2)OCO3)c(=O)c2ccccc21)NCc1ccco1`, the IC50 was > 50 µM (inactive).

Turning to `CCCCCC(=O)C(CCCC)c1oc(=O)c(CCCC)c(O)c1CCCC` (stereo not given), the IC50 was > 50 µM (inactive).

`COc1ccc(-c2ccc3cc(C(=O)O)ccc3c2)cc1C12CC3CC(CC(C3)C1)C2`: the IC50 was > 50 µM (inactive).

Consider `Cc1ccc([N+](=O)[O-])cc1S(=O)(=O)Nc1cc2sc(=O)oc2c2ccccc12`, for which the IC50 was > 50 µM (inactive).

On to `O=C(NCCc1nc2ccccc2n1Cc1ccccc1F)c1ccc(Cl)cc1`, for which the IC50 was > 50 µM (inactive).

Regarding `COc1ccc(-c2nc(Cn3nnc(C(=O)Nc4ccc(C)c(C)c4)c3N)c(C)o2)cc1`, the IC50 was > 50 µM (inactive).

In the case of `COc1ccc(C(=O)COC(=O)c2ccccc2NS(=O)(=O)c2ccc(O)c([N+](=O)[O-])c2)cc1`, the IC50 was 49.3 µM.

On to `Cc1cc(O)c2c3c(c(O)cc2c1)C(=O)c1c(O)cccc1C3=O`, for which the half-maximal inhibitory concentration (IC50) is 19.5 µM.

As for `O=C(CSc1ccc(-c2cccc([N+](=O)[O-])c2)nn1)Nc1cccc(F)c1`, the IC50 was > 50 µM (inactive).

Regarding `COC(=O)c1c(OC)cc2c(c1C)Oc1c(Cl)c(O)c(Cl)c(C)c1C(=O)O2`, the IC50 is > 50 µM (inactive).

Take `Cc1sc(NC(=O)Cn2nnc3ccccc32)nc1-c1ccc2c(c1)CCN2C(=O)c1ccccc1F`: the IC50 was > 50 µM (inactive).

On to `CCOc1ccc(NC(=O)Cn2c(=O)n(CCCCCC(=O)NCc3ccc(F)cc3)c(=O)c3sccc32)cc1`, for which the IC50 is > 50 µM (inactive).

In the case of `O=C(CCCc1nnc2c(=O)n(-c3cccc(F)c3)ccn12)NCc1ccc(Cl)cc1`, the IC50 was > 50 µM (inactive).

In the case of `Cc1sc2ccn(C)c(=O)c2c1C(=O)NC1CCCC1`, the IC50 was > 50 µM (inactive).

Take `COC(=O)c1ccc(N2CCN(C(C)=O)CC2)c(NC(=O)COc2ccc([N+](=O)[O-])cc2)c1`: the IC50 is > 50 µM (inactive).

Turning to `Cc1ccc(N2CC(c3nc4ccccc4n3CCOc3cccc(C)c3)CC2=O)cc1` (stereo not given), the IC50 was 42.7 µM.

With `Cc1noc(-c2cc(=O)n(CC(=O)Nc3ccccc3Cl)c3ccccc23)n1`, the IC50 was > 50 µM (inactive).

As for `O=c1c(O)c(-c2ccc(O)c(O)c2)oc2cc(O)cc(O)c12`, the IC50 was 5.22 µM.

Consider `O=C(CCCC(=O)N(c1ccc2c(c1)OCCO2)C(C(=O)NC1CCCCC1)c1ccc(F)cc1)Nc1ccccn1` (stereo not given), for which the IC50 is > 50 µM (inactive).

Regarding `Cc1ccc(-c2nc(NC(=O)COc3ccc(Cl)cc3)no2)cc1`, the IC50 was 22.5 µM.

As for `O=C(Nc1cc(F)c2nc(N3CCOCC3)ccc2c1)C1CC1`, the IC50 was > 50 µM (inactive).

Regarding `NC(=O)c1ccccc1NC(=O)COc1ccc2c(c1)oc(=O)c1ccccc12`, the IC50 was > 50 µM (inactive).

As for `CCCCCCCc1cc(OC(=O)c2c(CCCCCCC)cc(O)cc2O[C@@H]2O[C@H](CO)[C@H](O)[C@H](O)[C@H]2O)cc(O)c1C(=O)O`, the IC50 was 21.4 µM.

As to `N#Cc1ccccc1NC(=O)c1cc2c(s1)-c1ccccc1S(=O)(=O)C2`, the IC50 is > 50 µM (inactive).

In the case of `Nc1c(-c2nc(-c3ccccc3Cl)no2)nnn1-c1ccc(Cl)cc1`, the IC50 was > 50 µM (inactive).

`COc1cc2c(=O)n(Cc3ccccc3)c(=O)n(CC(=O)N3CCCc4ccccc43)c2cc1OC`: the IC50 was > 50 µM (inactive).

For `COc1ccc(NC(=O)c2cc(-c3cccnc3)n[nH]2)cc1Cl`, the IC50 is > 50 µM (inactive).

On to `O=C(CCCCn1c(=O)c2ccccc2n(CC(=O)Nc2ccc3c(c2)OCCO3)c1=O)NCc1ccco1`, for which the IC50 was > 50 µM (inactive).

As to `Cc1ccnc(Nc2nc(-c3ccccc3)c3cc(Cl)ccc3n2)n1`, the half-inhibitory concentration (IC50) was 38.5 µM.

`CC1=CC(=O)C(C2=C(O)C(=O)C(C)=CC2=O)=C(O)C1=O`: the IC50 was > 50 µM (inactive).

For the molecule `O=C(Cc1ccc(-n2c(=O)c3ccccc3n(CC(=O)Nc3ccc(Cl)cc3Cl)c2=O)cc1)NCc1ccco1`, the IC50 is > 50 µM (inactive).

As to `COc1ccc(OC)c(-c2cn3ccn(-c4ccc(F)c(Cl)c4)c(=O)c3n2)c1`, the IC50 was > 50 µM (inactive).

On to `Cc1ccc(NC(=O)Cn2cncc(-c3nc(-c4ccccc4)cs3)c2=O)cc1F`, for which the IC50 is > 50 µM (inactive).

For `O=C(CSc1nnc2c3ccccc3nc(-c3ccco3)n12)N1CCCc2ccccc21`, the IC50 was > 50 µM (inactive).

With `CC(=O)Nc1ccc(NC(=O)c2ccc3c(c2)CC(c2ccccc2)OC3=O)cc1` (stereo not given), the IC50 was > 50 µM (inactive).

Turning to `CCOc1ccc2c(c1)c(=O)c(C(=O)c1ccc(C)cc1)cn2CC(=O)Nc1ccc(C)cc1`, the IC50 was > 50 µM (inactive).

Consider `Oc1cccc2nc3c(O)cccc3nc12`, for which the IC50 was > 50 µM (inactive).

As to `Cc1ccc(-n2cc(-c3noc(C(=O)Nc4ccc(F)cc4C)n3)nn2)cc1`, the IC50 was > 50 µM (inactive).

Regarding `O=C(COc1ccccc1-c1nnc(-c2ccccc2)o1)NCCc1ccco1`, the IC50 was > 50 µM (inactive).

With `COc1ccccc1NC(=O)c1nc(-c2cn(-c3cccc(F)c3)nn2)no1`, the IC50 is > 50 µM (inactive).

On to `O=C(NC(Cc1ccccc1)c1nc2ccccc2[nH]1)C1CC1` (stereo not given), for which the IC50 was > 50 µM (inactive).

Consider `Cc1ccc(Cl)cc1NC(=O)Cn1c(=O)n(CCC(=O)NCc2ccco2)c(=O)c2ccccc21`, for which the IC50 is > 50 µM (inactive).

`COC(=O)c1ccccc1NC(=O)Cn1c(=O)n(Cc2ccc(C(=O)NCc3ccco3)cc2)c(=O)c2ccccc21`: the IC50 was > 50 µM (inactive).

Consider `Cc1ccc(Cn2c(=O)c3ncccc3n(CC(=O)NCc3ccc(F)cc3)c2=O)cc1`, for which the IC50 was > 50 µM (inactive).

With `C[C@@H]1OC2=C(C(=O)c3cccc(O)c3C2=O)[C@H](O)[C@@H]1O`, the IC50 is > 50 µM (inactive).

`Cc1nc(N2CCCC2)ncc1-c1cc(=O)[nH]c(Nc2ccc(Cl)cc2Cl)n1`: the IC50 was > 50 µM (inactive).

On to `O=C1c2c(O)cccc2C2(Oc3cccc4cccc(c34)O2)C2OC12` (stereo not given), for which the IC50 was > 50 µM (inactive).

As to `N#Cc1cn2c(nc1-c1ccc(Cl)cc1)nc1ccccc12`, the IC50 was > 50 µM (inactive).

With `CCOc1ccc(-n2c(SCC(=O)Nc3ccc(C)cc3)nnc2-c2c[nH]c3ccccc23)cc1`, the IC50 is > 50 µM (inactive).

As for `COc1ccc(-c2cc(-c3ccccc3)nc(SCC(N)=O)c2C#N)cc1OC`, the IC50 was > 50 µM (inactive).

On to `COc1ccc(C2/C(=C(\O)c3ccccc3)C(=O)C(=O)N2c2nc3ccc(F)cc3s2)cc1` (stereo not given), for which the half-maximal inhibitory concentration (IC50) is 23.7 µM.

As for `O=C(Nc1ccccc1Cc1ccccc1)c1nc2n(n1)-c1ccccc1S(=O)(=O)N2`, the IC50 is > 50 µM (inactive).

On to `O=C(O)c1ccccc1C(=O)Nc1ccc(SC(C(=O)Nc2cccc(Cl)c2)c2ccccc2)cc1` (stereo not given), for which the IC50 was > 50 µM (inactive).

With `O=c1[nH]c(C2CCN(S(=O)(=O)c3ccc(S(=O)(=O)NC4CCCCC4)cc3)CC2)nc2c1nnn2Cc1c(F)cccc1Cl`, the IC50 is > 50 µM (inactive).

For the molecule `O=C(O)C1C(C(=O)Nc2ccccc2)C2(c3ccccc3)C(=O)C1(c1ccccc1)C(c1ccccc1)=C2c1ccccc1` (stereo not given), the IC50 was 15.8 µM.

On to `O=C(CSc1nc2cc(C(F)(F)F)ccc2s1)NCC(=O)c1ccccc1`, for which the IC50 was 35.8 µM.

The IC50 is the concentration at which inhibition is half-maximal.
